# Reference: US6667387B1, “HCV core peptides” (priority 1992, dated 2003)
# Ends that are not written are not given here.
# Key:
# [1] = test system: antibodies in sera from HCV-seropositive donors; test: ELISA with HCV antibody-positive sera (biotinylated peptides on streptavidin- or avidin-coated plates, unbiotinylated peptides coated directly); assay type: binding, human; conditions: for optical density (450 nm): 20-fold dilution; for PEPTIDE ELISA (O.D.): Table 12, biotinylated 20-mers
# Experimental: (§1) Where peptides were to be coated directly, stock solutions of the peptides were diluted in sodium carbonate buffer, pH 9.6 and used to coat polystyrene microtiter plates at a peptide concentration of 2 to 5 micrograms per milliliter for 1 hour at 37° C.
# (§2) In cases where biotinylated peptides were to be evaluated, plates were first coated with streptavidin in sodium carbonate buffer, pH 9.6 at a concentration of 3 micrograms per milliliter for 1 hour at 37° C. The plates were then washed to remove excess, unbound protein. A working solution of the biotinylated peptide at 1 microgram per milliliter in sodium carbonate buffer was then added to the wells of the microtiter plate and incubated for 1 hours at 37° C.
# (§3) Once the plates had been coated with antigen, any remaining free binding sites on the plastic were blocked with casein. After washing, a dilution of the appropriate antisera, usually 1:100, was added to the wells of the plates and incubated for 1 hour at 37° C.
# (§4) After washing to remove unbound material, specific antibody binding was detected by incubating the plates with goat anti-human immunoglobulin antibodies conjugated to the enzyme horseradish peroxidase. Following removal of unbound conjugate by washing, a solution containing H2O2 and 3,3′,5,5′-tetramethylbenzidine was added.
# (§5) Reactions were stopped after a suitable interval by addition of sulfuric acid. […] Absorbance measurements were made at a wavelength of 450 nanometers and all data are expressed as an optical density value at this wavelength.
# The unbiotinylated peptides were adsorbed onto the wells of polystyrene microtiter plates at a concentration of 3 micrograms per milliliter.
# The biotinylated peptides were bound at a concentration of 1 microgram per milliliter to streptavidin-coated microtiter plates. Sera known to contain antibodies to these peptides were used for the evaluation and were tested at a 20-fold dilution.
# To investigate further the enhanced antibody recognition of biotinylated HCV peptides bound to streptavidin or avidin as compared to direct adsorption on plastic, the influence of peptide coating concentration was investigated. Three peptides (HCV peptides II, XI, and XVI) were coated in concentrations ranging from 10 nanograms per milliliter to 3 micrograms per milliliter in a volume of 200 microliters per microtiter plate well. For direct coating, the unbiotinylated versions of these peptides were used. The biotinylated versions of these peptides were used to coat wells to which streptavidin had previously been adsorbed. Sera known to contain antibodies to these peptides were used at a dilution of 1 to 100 to evaluate the magnitude of antibody binding.
# (§6) Unbiotinylated HCV peptide I was coated directly onto the wells of a polystyrene ELISA plate at a concentration of 3 micrograms per milliliter in sodium carbonate buffer, pH 9.6. Biotinylated HCV peptide I was bound to streptavidin-coated wells using a stock solution containing the peptide at a concentration of 1 microgram per milliliter. The resulting plates were then incubated in parallel with a panel of sera from HCV-seropositive donors. […] Two of the sera (8326 and 8244) recognize the biotinylated version of this peptide far better than the unbiotinylated version. The specificity of the antibody reaction is also reflected by the low optical density values obtained for 5 serum samples from uninfected donors (F88, F89, F76, F136, and F6).
# To determine how well biotinylated peptides would function in a mixture when bound to streptavidin- or avidin-coated plates, two mixtures were made of the N-terminally biotinylated versions of the HIV-1 peptides TM-HIV-1 (hereabove referred to as 1a.1) and V3-nm (hereabove referred to as 1b.4), the HIV-2 peptide TM-HIV-2 (hereabove referred to as 2a), and the hepatitis C virus peptides II, IX, and XVIII. […]
# [2] = ELISA with seronegative / negative control sera (specificity); assay type: binding, human; conditions: negative serum
# Experimental: as §1, §2, §3, §4, §5, §6
# To determine how well biotinylated peptides would function in a mixture when bound to streptavidin- or avidin-coated plates, two mixtures were made of the N-terminally biotinylated versions of the HIV-1 peptides TM-HIV-1 (hereabove referred to as 1a.1) and V3-nm (hereabove referred to as 1b.4), the HIV-2 peptide TM-HIV-2 (hereabove referred to as 2a), and the hepatitis C virus peptides II, IX, and XVIII. Mixture A contained each of the six biotinylated peptides at a concentration of 1 microgram per milliliter (6 micrograms per milliliter peptide, total) while in mixture B, each peptide was present at a concentration of 0.1 microgram per milliliter (0.6 microgram per milliliter peptide, total). The individual peptides were coated at a concentration of 1 microgram per milliliter. For purposes of comparison, mixtures A and B were also coated directly onto the wells of a microtiter plate. Samples from HIV-1, HIV-2, and HCV-seropositive donors were tested and compared to sera from seronegative blood donors. A cut-off absorbance value of 0.250 was used to determine whether a reaction was positive or negative. Absorbance values equal or greater than 0.250 were considered positive while absorbance values below this value were considered negative.
substance,measurement,setting,value
Leu-Arg-Lys-Ser-Arg-Arg-Phe-Ala-Gln-Ala-Leu-Pro-Val-Trp-Ala-Arg-Pro-Asp-Tyr-Asn [Peptide XVI] (LRKSRRFAQALPVWARPDYN; printed: Leu-Arg-Lys-Ser-Arg-Arg-Phe-Ala-Gln-Ala-Leu-Pro-Val-Trp-Ala-Arg-Pro-Asp-Tyr-Asn),optical density (450 nm),"[1]; Table 4B, serum 1",2.435
same,optical density (450 nm),"[1]; Table 4B, serum 2",1.239
same,optical density (450 nm),"[1]; Table 4B, serum 6",1.595
same,optical density (450 nm),"[1]; Table 4B, serum 8",1.599
same,optical density (450 nm),"[1]; Table 4B, serum 10",2.847
same,optical density (450 nm),"[1]; Table 4B, serum 26",1.522
same,optical density (450 nm),"[1]; Table 4B, serum 83",2.221
same,optical density (450 nm),"[1]; Table 4B, serum 88",2.519
same,optical density (450 nm),"[1]; Table 4B, serum 89",1.530
same,optical density (450 nm),"[1]; Table 4B, serum 91",2.169
same,optical density (450 nm),"[1]; Table 4B, serum 95",1.484
same,optical density (450 nm),"[1]; Table 4B, serum 99",2.045
same,optical density (450 nm),"[1]; Table 4B, serum 100",1.637
same,optical density (450 nm),"[1]; Table 4B, serum 104",0.942
same,optical density (450 nm),"[1]; Table 4B, serum 105",2.186
same,optical density (450 nm),"[1]; Table 4B, serum 110",1.484
same,optical density (450 nm),"[1]; Table 4B, serum 111",1.465
same,optical density (450 nm),"[1]; Table 4B, serum 112",1.084
same,optical density (450 nm),"[1]; Table 4B, serum 113",2.535
same,optical density (450 nm),"[1]; Table 4B, serum 116",1.918
same,optical density (450 nm),"[1]; Table 4B, serum 120",2.332
same,optical density (450 nm),"[1]; Table 4B, serum 266",2.262
same,optical density (450 nm),"[1]; Table 4B, serum 8247",0.618
same,optical density (450 nm),"[1]; Table 4B, serum 11476",2.197
same,optical density (450 nm),"[1]; Table 4B, serum 24758",0.062
same,PEPTIDE ELISA (O.D.),[1]; serum 0843,1.444
same,PEPTIDE ELISA (O.D.),[1]; serum 8240,0.388
same,PEPTIDE ELISA (O.D.),[1]; serum 8241,2.456
same,PEPTIDE ELISA (O.D.),[1]; serum 8242,2.318
same,PEPTIDE ELISA (O.D.),[1]; serum 8332,2.130
same,PEPTIDE ELISA (O.D.),[1]; serum 8339,2.859
same,PEPTIDE ELISA (O.D.),[1]; serum 8350,2.249
same,PEPTIDE ELISA (O.D.),[1]; serum 8377,2.336
same,PEPTIDE ELISA (O.D.),[1]; serum 8378,1.602
same,PEPTIDE ELISA (O.D.),[1]; serum 8388,0.390
same,optical density (450 nm),[2]; Table 4B,0.067
Leu-Arg-Lys-Ser-Arg-Arg-Phe-Ala-Gln-Ala-Leu-Pro-Val-Trp-Ala-Arg-Pro-Asp-Tyr-Asn [Unbiotinylated peptide XVI] (LRKSRRFAQALPVWARPDYN; printed: Leu-Arg-Lys-Ser-Arg-Arg-Phe-Ala-Gln-Ala-Leu-Pro-Val-Trp-Ala-Arg-Pro-Asp-Tyr-Asn),optical density (450 nm),"[1]; Table 4B, serum 1",1.038
same,optical density (450 nm),"[1]; Table 4B, serum 2",0.616
same,optical density (450 nm),"[1]; Table 4B, serum 6",0.100
same,optical density (450 nm),"[1]; Table 4B, serum 8",0.329
same,optical density (450 nm),"[1]; Table 4B, serum 10",1.033
same,optical density (450 nm),"[1]; Table 4B, serum 26",0.053
same,optical density (450 nm),"[1]; Table 4B, serum 83",0.912
same,optical density (450 nm),"[1]; Table 4B, serum 88",1.187
same,optical density (450 nm),"[1]; Table 4B, serum 89",0.495
same,optical density (450 nm),"[1]; Table 4B, serum 91",0.197
same,optical density (450 nm),"[1]; Table 4B, serum 95",0.109
same,optical density (450 nm),"[1]; Table 4B, serum 99",0.814
same,optical density (450 nm),"[1]; Table 4B, serum 100",0.474
same,optical density (450 nm),"[1]; Table 4B, serum 104",0.205
same,optical density (450 nm),"[1]; Table 4B, serum 105",0.313
same,optical density (450 nm),"[1]; Table 4B, serum 110",0.762
same,optical density (450 nm),"[1]; Table 4B, serum 111",0.193
same,optical density (450 nm),"[1]; Table 4B, serum 112",0.253
same,optical density (450 nm),"[1]; Table 4B, serum 113",0.833
same,optical density (450 nm),"[1]; Table 4B, serum 116",0.058
same,optical density (450 nm),"[1]; Table 4B, serum 120",0.964
same,optical density (450 nm),"[1]; Table 4B, serum 266",0.712
same,optical density (450 nm),"[1]; Table 4B, serum 8247",0.059
same,optical density (450 nm),"[1]; Table 4B, serum 11476",0.068
same,optical density (450 nm),"[1]; Table 4B, serum 24758",0.071
same,optical density (450 nm),[2]; Table 4B,0.063
RNTNRRPQDVKFPGGGQIVG [listing 1 of 2 here],optical density (450 nm),"[1]; Table 4D, serum 8241",2.066
same,optical density (450 nm),"[1]; Table 4D, serum 8242",2.197
same,optical density (450 nm),"[1]; Table 4D, serum 8243",2.368
same,optical density (450 nm),"[1]; Table 4D, serum 8247",2.398
same,optical density (450 nm),"[1]; Table 4D, serum 8248",2.918
same,optical density (450 nm),"[1]; Table 4D, serum 8250",2.626
same,optical density (450 nm),"[1]; Table 4D, serum 8271",2.066
same,optical density (450 nm),"[1]; Table 4D, serum 8272",2.638
same,optical density (450 nm),"[1]; Table 4D, serum 8273",2.697
same,optical density (450 nm),"[1]; Table 4D, serum 8274",2.905
same,optical density (450 nm),"[1]; Table 4D, serum 8275",2.640
same,optical density (450 nm),"[1]; Table 4D, serum 8276",2.674
same,optical density (450 nm),"[1]; Table 4D, serum 8277",2.327
same,PEPTIDE ELISA (O.D.),[1]; serum 0843,2.368
same,PEPTIDE ELISA (O.D.),[1]; serum 8240,2.918
same,PEPTIDE ELISA (O.D.),[1]; serum 8241,2.066
same,PEPTIDE ELISA (O.D.),[1]; serum 8242,2.197
same,PEPTIDE ELISA (O.D.),[1]; serum 8332,2.054
same,PEPTIDE ELISA (O.D.),[1]; serum 8339,2.765
same,PEPTIDE ELISA (O.D.),[1]; serum 8350,2.135
same,PEPTIDE ELISA (O.D.),[1]; serum 8377,2.368
same,PEPTIDE ELISA (O.D.),[1]; serum 8378,2.369
same,PEPTIDE ELISA (O.D.),[1]; serum 8388,2.463
same,optical density (450 nm),[2]; Table 4D,0.06
RNTNRRPQDVKFPGGGQIVG [listing 2 of 2 here],optical density (450 nm),"[1]; Table 4D, serum 8241",1.219
same,optical density (450 nm),"[1]; Table 4D, serum 8242",1.976
same,optical density (450 nm),"[1]; Table 4D, serum 8243",1.859
same,optical density (450 nm),"[1]; Table 4D, serum 8247",1.072
same,optical density (450 nm),"[1]; Table 4D, serum 8248",2.742
same,optical density (450 nm),"[1]; Table 4D, serum 8250",2.471
same,optical density (450 nm),"[1]; Table 4D, serum 8271",1.471
same,optical density (450 nm),"[1]; Table 4D, serum 8272",2.471
same,optical density (450 nm),"[1]; Table 4D, serum 8273",1.543
same,optical density (450 nm),"[1]; Table 4D, serum 8274",2.503
same,optical density (450 nm),"[1]; Table 4D, serum 8275",1.595
same,optical density (450 nm),"[1]; Table 4D, serum 8276",1.976
same,optical density (450 nm),"[1]; Table 4D, serum 8277",0.735
same,optical density (450 nm),[2]; Table 4D,0.050
